Source: US12268677B2, “4-aminopyridine (4-AP) and bone morphogenetic protein 2 (BMP-2)” (The Penn State Research Foundation, priority 2022, dated 2025)

Tests used:
[1] = tested on: BMP-2 protein in hBMSCs; test: BMP-2 protein level in hBMSCs by western blot; format: cell-based, human; details: 1000 μM 4-AP
Method: FIGS. 2A-2B. Western blot analysis of BMP-2 protein. Incubation of hBMSCs in Dulbecco's modified Eagle's medium supplemented with 10% FBS and penicillin/streptomycin (100 U/mL penicillin and […] streptomycin) in the presence of 1000 μM 4-AP increased BMP-2 protein at day 3, 7, and 14. The blots were stripped and reprobed with anti-GAPDH antibody. FIG. 2A: Representative image of a western blot of BMP-2 at day 3, 7, and 14. FIG. 2B: Densitometric analysis was carried out and the BMP-2 was normalized with GAPDH to calculate fold change. Data are presented as mean±SEM (n=3). Values are significant at *p<0.05, Abbreviations used; 4—AP-4-aminopyridine, BMP-2—bone morphogenetic protein-2, GAPDH-glyceraldehyde-3-phosphate dehydrogenase. Protein level by western blot: Total protein was extracted from hBMSCs with RIPA lysis buffer at the end of 3, 7, and 14 days of 4-AP treatment. The protein concentrations of cell lysates were determined using Pierce BCA Protein Assay kit (Thermo Fischer Scientific). Total cell lysates containing equal amounts of protein were denatured with SDS reducing buffer. The denatured proteins were separated on 10% polyacrylamide gel and transferred to a PVDF membrane. The blots were blocked and probed with primary and secondary antibodies, followed by visualization of bands by chemiluminescence peroxidase substrate. The BMP-2 band intensities were analyzed by ImageJ software (FIGS. 2A and 2B).

[2] = tested on: BMP-2 gene expression in human bone marrow mesenchymal stem cells (hBMSCs); test: BMP-2 gene expression in hBMSCs by quantitative real-time PCR; format: cell-based; details: 1000 μM 4-AP
Method: FIG. 1. 4-AP upregulates BMP-2 expression in human bone marrow mesenchymal stem cells (hBMSCs). hBMSCs were incubated in Dulbecco's modified Eagle's medium supplemented with 10% FBS and penicillin/streptomycin (100 U/mL penicillin and […] streptomycin) in the presence of 1000 μM 4-AP induced expression of BMP-2 gene. BMP-2 gene expression was increased at day 3 and remained high at day 7 and day 14. The gene expression levels of BMP-2 were normalized with β-actin and were then used to calculate fold change in 4-AP treated compared to control. Data are presented as mean±SEM (n=3). Values are significant at *p<0.05, **p<0.01. Abbreviations used; BMP-2 —bone morphogenetic protein-2. Human bone marrow mesenchymal stem cells (hBMSC) were cultured in growth medium supplemented with 4-AP for 3, 7, and 14 days. Total RNA was isolated from the cells at the end of treatment, converted to cDNA, and the gene expression of bone morphogenetic protein-2 (BMP-2) was analyzed by quantitative real-time PCR. Gene expression by quantitative real-time PCR: Quantitative real-time PCR was carried out to determine gene expression of BMP-2 by hBMSCs incubated in Dulbecco's modified Eagle's medium with 10% fetal bovine serum (FBS) and penicillin/streptomycin (100 U/mL penicillin and […] streptomycin) at a humidified atmosphere of 5% CO2 under 37° C. Cell cultures were supplemented with 1000 μM 4-AP for 3, 7, and 14 days. Total RNA was isolated from the cells and converted to cDNA using verso cDNA synthesis kit (Thermo Fischer Scientific). The cDNA obtained was analyzed in a quantitative real-time PCR (FIG. 1).

[3] = tested on: BMP-2 gene expression in human fetal osteoblasts (hFOB); test: BMP-2 gene expression in human fetal osteoblasts (hFOB) by quantitative real-time PCR; format: cell-based; details: 1000 μM 4-AP for 3 days, normalized with β-actin
Method: FIG. 3. 4-AP upregulates BMP-2 gene expression in human fetal osteoblasts (hFOB). […] The gene expression levels were normalized with β-actin and was then used to calculate fold change in 4-AP treated compared to control. Data are presented as mean±SEM (n=3). Values are significant at *p<0.05. Abbreviations used; 4-AP—4-aminopyridine. Human fetal osteoblasts (hFOB) were cultured in growth medium supplemented with 4-AP for 3 days. Total RNA was isolated from the cells at the end of treatment, converted to cDNA, and the gene expression of bone morphogenetic protein-2 (BMP-2) was analyzed by quantitative real-time PCR (FIG. 3).

[4] = tested on: tibial fracture in C57BL/6J mice; test: Mid-diaphysis tibial fracture healing in mice, micro-CT analysis of callus; format: in vivo
Excerpt: 8 week old C57Bl/6J mice were subjected to mid-diaphysis tibial fracture, treated with 4-AP for 21 days, and harvested. FIG. 4A: Representative X-ray images at the end of 21 days of 4-AP treatment. FIG. 4B: Representative micro-CT images of tibia fracture on day 21. […] FIG. 4D: Graphical presentation of Micro CT analysis of bone mineral density (BMD), and bone volume density (BV/TV). Data are presented as mean±SEM (n=6). Values are significant at *p<0.05.
Ten-week-old male C57/BL6J mice were purchased from the Jackson laboratory (Bar Harbor, ME, USA) and were maintained in a 12-h light, 12-h dark cycle at 21.1° C. to 22.8° C. After acclimatization, all mice were randomly divided in to two groups: 1) control and 2) 4-AP.
A mid diaphysis tibial fracture was performed in ten-week-old male mice. After the mice were anesthetized with ketamine/xylazine, a 5 mm longitudinal incision will be made at the front of the proximal tibia. The mid diaphysis of the tibia will be identified, and an osteotomy will be created with a No. 11 scalpel blade preventing any comminution. A 27G hypodermic needle will be introduced into the tibial canal for intramedullary fixation. Buprenorphine was given as post-operative analgesia. X-ray images were acquired post-operatively and mice received saline or 4-AP on the same day. Control group received 100 μl of saline, and a 4-AP group received 40 μg/mouse/daily 4-AP (1.6 mg/kg) in saline intraperitoneally until day 21 post-surgery.
For micro-CT analysis, tibia of control and 4-AP mice were dissected of soft tissue and fixed in neutral buffered formalin. μCT scanning was conducted using a Scanco vivaCT 40. […] Callus area from control and 4-AP mice tibia were assessed for bone mineral density (BMD) and percent bone volume per total volume (% BV/TV).
Tibial fracture was performed in C57BL/6J mice, which were then treated with 4-AP for 21 days for the evaluation of fracture healing parameters. The bone mineral density and bone volume density were determined by micro-CT analysis at the end of 21 days 4-AP treatment.

[5] = C57BL/6J mice, tibial fracture, 40 μg/mouse/daily 4-AP (1.6 mg/kg) intraperitoneally, 21 days, micro-CT, compared to saline treated controls

Nc1ccncc1 [4-AP, 4-aminopyridine]
BMP-2 protein (western blot, normalized with GAPDH) ([1]; day 3): increased
BMP-2 protein (western blot, normalized with GAPDH) ([1]; day 7): increased
BMP-2 protein (western blot, normalized with GAPDH) ([1]; day 14): increased
BMP-2 gene expression (fold change vs control, normalized with β-actin) ([2]; day 3): increased
BMP-2 gene expression (fold change vs control, normalized with β-actin) ([2]; day 7): remained high
BMP-2 gene expression (fold change vs control, normalized with β-actin) ([2]; day 14): remained high
expression of BMP-2 compared with the control group [3]: significantly increased
bone mineral density within the callus area [4, 5]: higher
bone volume density (BV/TV) within the callus area [4, 5]: higher
bone fracture healing ([4]; C57Bl/6J mice, mid-diaphysis tibial fracture, treated with 4-AP for 21 days): enhanced
